Like-named read-outs stand apart in the source and are kept apart here.

Data set [1] deals with neurons in CA1 and CA3 regions of the hippocampus. Kind of data set: Silver staining of hippocampal tissue. It counts as in vivo. To be noted: PTZ model mice, compared with PTZ group. On the procedure: Following the creation of the PTZ model, a modified version of the silver impregnation staining technique was applied for silver staining, enabling the observation of changes in neuronal fibers and synapses throughout diseases. Brain tissue slices from each mouse, encased in paraffin, underwent deparaffinization using xylene and absolute ethanol, followed by a treatment in acidic formaldehyde, and then incubation in a glycine–silver mixture. Following the application of a reducing solution for staining, the samples were analyzed using an optical microscope. Against a yellow backdrop, nerve cells’ axons, dendrites, collagen fibers, and neurofibrillary tangles were colored in dark brown or black.

For another data set, the system named is scPTZ-induced seizures. Also noted: method as in PMID 31539780. To be noted: reference drug; cited from earlier work.
Data set [2] deals with maximal electroshock (MES) induced seizures. The experiment in a line: Maximal electroshock (MES) test. It counts as in vivo, mice. To be noted: Mus musculus, ip. For orientation: The maximal electroshock test induces tonic seizures with an electrical stimulus.
Another data set has as its system LDH. Kind of data set: Immunofluorescence staining for LDH in hippocampus. In kind it is in vivo. The settings on record: hippocampus CA1, PTZ model mice. On the procedure: Brain samples were extracted, preserved in 4% paraformaldehyde for a day, and subsequently immersed in a 30% sucrose solution to dehydrate. Post OCT embedding, slices of brain tissue measuring 16 μm in thickness were sliced using a cryostat. Following the permeabilization using 0.5% TritonX-100 and subsequent blocking with 10% goat serum at ambient temperature to remove nonspecific staining, the tissue samples were subjected to overnight incubation at 4 °C with the primary antibody, LDHA (Proteintech (Rosemont, IL, USA), Cat No. 19987-1-AP, Lot: 00106920, rabbit anti-rat 1:200). On the next day, the slides underwent incubation using a secondary antibody. The slides underwent counterstaining using DAPI. […] slices were examined and visualized utilizing the VS200-BU Slide Scanner (Olympus Corporation, Tokyo, Japan).

For the next data set, the system named is mice. Also noted: method as in PMID 31539780. To be noted: reference drug; cited from earlier work.
A further data set deals with LDH enzyme. The experiment in a line: In vitro LDH assay. In kind it is biochemical. On the procedure:
Employing the commercial LDH enzyme (Solarbio Life Science, Beijing, China, CAS:9001-60-9, Lot. Document No. 14240222001) includes a colorimetric assay kit designed to assess the synthesized substances’ capacity to suppress the LDH enzyme, using established techniques with slight alterations. In summary, a 96-well microplate was filled with 30 μL of LDH enzyme (300 U/mL) and 70 μL of the inhibitor mixture (0.1 mM in final concentration). Following a 10 min pre-incubation process at ambient temperature, […] of NADH (0.2 mM) was introduced. Subsequently, each well received 40 μL of phosphate buffer (20 mM, pH 6.8), reaching a total volume of 250 μL, followed by a 10 min incubation of the assay plate at 28 °C. Subsequently, […] absorbance was gauged at 340 nm utilizing a SpectraMax 190 Absorbance Microplate Reader (Molecular Devices, San Jose, CA, USA). […] In the initial screening, the level of suppression by the test substances was denoted as a percentage (%). The calculation for the LDH inhibition ratio was as follows:Inhibition (%) = [(Asample − Ablank)/Acontrol] × 100%
Asample denotes the OD340 absorbance of test compound and Ablank is the OD340 absorbance for the blank. Acontrol represents the OD340 absorbance of control.

Turning to `CC(C)(C)C(O)/C=C/c1ccc2c(c1)OCO2` (stereo not shown) [STP, Stiripentol, reference compound], the “silver staining, neurons in hippocampal CA1 and CA3” value in data set [1] is on record as “alleviated symptoms”. In the data set with scPTZ-induced seizures, the “SCPTZ Latent Time (100 mg/kg, s)” value is 269.5 ± 19.8 s. The “SCPTZ Protective Ratio (100 mg/kg)” value with scPTZ-induced seizures is listed as 2/4. Besides, the responders at 100 mg/kg was 100% in data set [2] (0.5 h, read-out: MES model, protected mice/total mice, 0.5 h); 50% in data set [2] (1 h, read-out: MES model, protected mice/total mice, 1 h); 25% in data set [2] (2 h, read-out: MES model, protected mice/total mice, 2 h); 0% in data set [2] (3 h, read-out: MES model, protected mice/total mice, 3 h). The LDH immunolabelling intensity result in the data set on LDH is recorded as “lower than the values found in the PTZ group”. Further, in the data set with mice, the TD50 was 161.7 (146.2–256.2) mg/kg. The “LDH Inhibition Ratio (0.1 mM)” value with LDH enzyme amounted to 46.1 ± 6.2%.

These data come from PMC12472621, “Excavating Precursors from Herb Pairs Polygala tenuifolia and Acori tatarinowii: Synthesis and Anticonvulsant Activity Evaluation of 3,4,5-Trimethoxycinnamic Acid (TMCA) Piperazine Amide Derivatives” (Pharmaceuticals, 2025).
